In brackets after ≈: the same amount, converted by molar mass.
Legend:
[1] = Hemolytic activity assay; format: cell-based, murine; conditions: mouse, murine red blood cells (mRBCs), mRBCs, 37 °C 1 h, ± SDEV
Description: (§1) The hemolytic activity of compounds 3, 4, 7a, 7b, and 9 as well as the parent compound TOB was determined by using previously described methods with minor modifications. Murine whole blood (1 mL) was suspended in 4 mL of PBS and centrifuged at 1000 rpm for 10 min at room temperature to obtain murine red blood cells (mRBCs). The mRBCs were washed four times in PBS and resuspended in the same buffer to a final concentration of 10^7 erythrocytes/mL. Two-fold serial dilutions of compounds 3, 4, 7a, 7b, and 9 were prepared using 100 μL of PBS buffer in Eppendorf tubes followed by the addition of 100 μL of mRBC suspension that made the final concentration of compounds and mRBCs to be 0.48–62.5 μg/mL and 5 × 10^6 erythrocytes/mL, respectively. The tubes were incubated at 37 °C for 1 h. The tubes with PBS buffer (200 μL) and Triton X-100® (1% v/v, 2 μL) served as the negative (blank) and positive controls, respectively. The percentage of hemolysis was calculated using the following equation: % hemolysis = [(absorbance of sample) − (absorbance of blank)] × 100/(absorbance of positive control).

[2] = system: murine red blood cells (mRBCs); assay: Hemolytic activity assay; format: cell-based; conditions: 62.5 μg/mL, mRBCs, 37 °C 1 h, ± SDEV
Description: as §1

[3] = system: C. albicans ATCC 10231 (strain A); assay: MIC, broth microdilution (CLSI M27-A3), yeast strain A; format: cell-based, Candida albicans; conditions: Candida albicans, ATCC10231; MIC-0, strain A, 35 °C 48 h
Description: (§2) The final concentrations of compounds 3, 4, 7a, 7b, 9, and 16, as well as that of TOB tested in this study ranged from 0.24–62.5 μg/mL. CAS was used as a positive control and the final concentrations tested for CAS ranged from 0.03–31.3 μg/mL. Briefly, overnight yeast cultures were grown in yeast peptone dextrose (YPD) broth and the cell density was adjusted to an OD600 of 0.12 (~1 × 10^6 CFU/mL) by using a spectrophotometer. Yeast cell suspensions were further diluted to achieve 1–5 × 10^3 CFU/mL in RPMI 1640 medium, and 100 μL of these yeast cells was added to 96-well microtiter plates containing RPMI 1640 medium and titrated compounds. Each test was performed in triplicate. The plates were incubated at 35 °C for 48 h.

[4] = system: C. albicans ATCC 64124 (strain B); assay: MIC, broth microdilution (CLSI M27-A3), yeast strain B; format: cell-based; conditions: Candida albicans, ATCC64124; MIC-0, strain B, 35 °C 48 h
Description: as §2

[5] = system: C. albicans ATCC MYA-2876(S) (strain C); assay: MIC, broth microdilution (CLSI M27-A3), yeast strain C; format: cell-based; conditions: Candida albicans; MIC-0, strain C, 35 °C 48 h
Description: as §2

[6] = system: C. albicans ATCC 90819(R) (strain D); assay: MIC, broth microdilution (CLSI M27-A3), yeast strain D; format: cell-based; conditions: Candida albicans, ATCC90819; MIC-0, strain D, 35 °C 48 h
Description: as §2

[7] = system: C. albicans ATCC MYA-2310(S) (strain E); assay: MIC, broth microdilution (CLSI M27-A3), yeast strain E; format: cell-based; conditions: Candida albicans; MIC-0, strain E, 35 °C 48 h
Description: as §2

[8] = system: C. albicans ATCC MYA-1237(R) (strain F); assay: MIC, broth microdilution (CLSI M27-A3), yeast strain F; format: cell-based; conditions: Candida albicans; MIC-0, strain F, 35 °C 48 h
Description: as §2

[9] = system: C. albicans ATCC MYA-1003(R) (strain G); assay: MIC, broth microdilution (CLSI M27-A3), yeast strain G; format: cell-based; conditions: Candida albicans; MIC-0, strain G, 35 °C 48 h
Description: as §2

[10] = system: Candida glabrata clinical isolate CG1; assay: MIC, broth microdilution (CLSI M27-A3), CG1; format: cell-based; conditions: Nakaseomyces glabratus; MIC-0, CG1, 35 °C 48 h
Description: as §2

[11] = system: Candida glabrata clinical isolate CG2; assay: MIC, broth microdilution (CLSI M27-A3), CG2; format: cell-based; conditions: Nakaseomyces glabratus; MIC-0, CG2, 35 °C 48 h
Description: as §2

[12] = system: Candida glabrata clinical isolate CG3; assay: MIC, broth microdilution (CLSI M27-A3), CG3; format: cell-based; conditions: Nakaseomyces glabratus; MIC-0, CG3, 35 °C 48 h
Description: as §2

[13] = system: Candida glabrata ATCC 2001 (strain H); assay: MIC, broth microdilution (CLSI M27-A3), yeast strain H; format: cell-based; conditions: Nakaseomyces glabratus, ATCC2001; MIC-0, strain H, 35 °C 48 h
Description: as §2

[14] = system: Candida krusei ATCC 6258 (strain I); assay: MIC, broth microdilution (CLSI M27-A3), yeast strain I; format: cell-based; conditions: Pichia kudriavzevii, ATCC6258; MIC-0, strain I, 35 °C 48 h
Description: as §2

[15] = system: Candida parapsilosis ATCC 22019 (strain J); assay: MIC, broth microdilution (CLSI M27-A3), yeast strain J; format: cell-based; conditions: Lodderomyces parapsilosis, ATCC22019; MIC-0, strain J, 35 °C 48 h
Description: as §2

[16] = system: Candida parapsilosis clinical isolate CP1; assay: MIC, broth microdilution (CLSI M27-A3), CP1; format: cell-based; conditions: Lodderomyces parapsilosis; MIC-0, CP1, 35 °C 48 h
Description: as §2

[17] = system: Candida parapsilosis clinical isolate CP2; assay: MIC, broth microdilution (CLSI M27-A3), CP2; format: cell-based; conditions: Lodderomyces parapsilosis; MIC-0, CP2, 35 °C 48 h
Description: as §2

[18] = system: Candida parapsilosis clinical isolate CP3; assay: MIC, broth microdilution (CLSI M27-A3), CP3; format: cell-based; conditions: MIC-0, CP3, 35 °C 48 h
Description: as §2

[19] = system: Cryptococcus neoformans clinical isolate CN1; assay: MIC, broth microdilution (CLSI M27-A3), CN1; format: cell-based; conditions: MIC-0, CN1, 35 °C 48 h
Description: as §2

[20] = system: Cryptococcus neoformans clinical isolate CN2; assay: MIC, broth microdilution (CLSI M27-A3), CN2; format: cell-based; conditions: MIC-0, CN2, 35 °C 48 h
Description: as §2

[21] = system: Cryptococcus neoformans clinical isolate CN3; assay: MIC, broth microdilution (CLSI M27-A3), CN3; format: cell-based; conditions: MIC-0, CN3, 35 °C 48 h
Description: as §2

[22] = system: Aspergillus flavus ATCC MYA-3631 (strain K); assay: MIC, filamentous fungi (CLSI M38-A2), strain K; format: cell-based; conditions: Aspergillus flavus, 72 h, MIC-0, strain K, 35 °C 72 h; read-out: MIC
Description: (§3) The spores were harvested from sporulating cultures growing on potato dextrose agar (PDA) by filtration through sterile glass wool and enumerated by using a hemocytometer (Hausser Scientific, Horsham, PA, USA) to obtain the desired inoculum size. Two-fold serial dilutions of compounds 3, 4, 7a, 7b, 9, and 16, as well as CAS and TOB were made in sterile 96-well microtiter plates to obtain the final concentration range of 0.24–62.5 μg/mL for TOB and TOB derivatives as well as 0.03–31.3 μg/mL for CAS in the RPMI 1640 medium. The spore suspensions were added to the wells to afford a final concentration of 5 × 10^5 spores/mL. The plates were incubated at 35 °C for 72 h. […] Each test was performed in triplicate.

[23] = system: Aspergillus nidulans ATCC 38163 (strain L); assay: MIC, filamentous fungi (CLSI M38-A2), strain L; format: cell-based; conditions: Aspergillus nidulans, ATCC38163, 72 h, MIC-0, strain L, 35 °C 72 h; read-out: MIC
Description: as §3

[24] = system: Aspergillus terreus ATCC MYA-3633 (strain M); assay: MIC, filamentous fungi (CLSI M38-A2), strain M; format: cell-based; conditions: MIC-0, strain M, 35 °C 72 h
Description: as §3

[25] = system: C. neoformans clinical isolates CN1-3; assay: MIC across C. neoformans clinical isolates CN1-3; format: cell-based, Cryptococcus neoformans
Description: as §2

## C[C@@H]1[C@H](O)[C@@H](C)/C=C/C=C/C=C/C=C/C=C/C=C/C=C/[C@H](O[C@@H]2O[C@H](C)[C@@H](O)[C@H](N)[C@@H]2O)C[C@@H]2O[C@](O)(C[C@@H](O)C[C@@H](O)[C@H](O)CC[C@@H](O)C[C@@H](O)CC(=O)O[C@H]1C)C[C@H](O)[C@H]2C(=O)O [AmB, amphotericin B, reference compound]
[1]; 0.48 μg/mL
  hemolysis at 1 h, 0.48 μg/mL: 0%
[1]; 0.975 μg/mL
  hemolysis at 1 h, 0.975 μg/mL: 0%
[1]; 1.95 μg/mL
  hemolysis at 1 h, 1.95 μg/mL: 1.7 ± 0.1%
[1]; 3.9 μg/mL
  hemolysis at 1 h, 3.9 μg/mL: 3.4 ± 0.6%
[1]; 7.8 μg/mL
  hemolysis at 1 h, 7.8 μg/mL: 3.7 ± 0.7%
[1]; 15.6 μg/mL
  hemolysis at 1 h, 15.6 μg/mL: 31.9 ± 5.7%
[1]; 31.3 μg/mL
  hemolysis at 1 h, 31.3 μg/mL: 80.2 ± 8.5%
[2]
  % hemolysis: 90.3 ± 5.7%

## CC[C@H](C)C[C@H](C)CCCCCCCCC(=O)N[C@H]1C[C@@H](O)[C@@H](NCCN)NC(=O)[C@@H]2[C@@H](O)CCN2C(=O)[C@H]([C@H](O)CCN)NC(=O)[C@H]([C@H](O)[C@@H](O)c2ccc(O)cc2)NC(=O)[C@@H]2C[C@@H](O)CN2C(=O)[C@H]([C@@H](C)O)NC1=O [CAS, caspofungin, reference compound]
[3]
  MIC: 0.975 µg/mL (≈ 0.892 µM)
[4]
  MIC: 0.24 µg/mL (≈ 0.22 µM)
[5]
  MIC: 0.06 µg/mL (≈ 0.0549 µM)
[6]
  MIC: 0.12 µg/mL (≈ 0.11 µM)
[7]
  MIC: 0.12 µg/mL (≈ 0.11 µM)
[8]
  MIC: 0.24 µg/mL (≈ 0.22 µM)
[9]
  MIC: 0.48 µg/mL (≈ 0.439 µM)
[10]
  MIC: 1.95 µg/mL (≈ 1.78 µM)
[11]
  MIC: 0.24 µg/mL (≈ 0.22 µM)
[12]
  MIC: 0.975 µg/mL (≈ 0.892 µM)
[13]
  MIC: 0.06 µg/mL (≈ 0.0549 µM)
[14]
  MIC: 0.48 µg/mL (≈ 0.439 µM)
[15]
  MIC: 1.95 µg/mL (≈ 1.78 µM)
[16]
  MIC: 0.48 µg/mL (≈ 0.439 µM)
[17]
  MIC: 0.48 µg/mL (≈ 0.439 µM)
[18]
  MIC: 0.48 µg/mL (≈ 0.439 µM)
[19]
  MIC: 15.6 µg/mL (≈ 14.3 µM)
[20]
  MIC: 31.3 µg/mL (≈ 28.6 µM)
[21]
  MIC: 15.6 µg/mL (≈ 14.3 µM)
[22]
  MIC: > 31.3 µg/mL
[23]
  MIC: > 31.3 µg/mL
[24]
  MIC: > 31.3 µg/mL
[25]
  MIC values: low to no activity

Source: paper PMC5971061, “Differential Effects of Linkers on the Activity of Amphiphilic Tobramycin Antifungals” (Molecules : A Journal of Synthetic Chemistry and Natural …, 2018)
